In data set [1] the test system is TPA-induced irritant contact dermatitis-like inflammation. The data set can be described thus: TPA-induced irritant contact dermatitis-like inflammation of mouse ears. The format is in vivo, Balb/C mouse. Particulars: for TPA-induced ear skin inflammation, histological analysis: H&E, vs control; for TPA-induced ear skin inflammation, histological analysis / expression of TSLP in TPA-treated mouse epidermis (immunochemistry): data not shown; for expression of TSLP in TPA-treated mouse epidermis (immunochemistry): TSLP-specific antibody; for TPA-induced transcription of pro-inflammatory genes (CCL4, COX2, MMP13, IL-1β, IL-6, TNF-α, TSLP, IL-22, IL-23): ear extracts, q-RT-PCR, D10; for TPA-induced skin inflammation: topical 1 nmole/cm^2, 5 days co-treatment with TPA. On the procedure: Balb/C mouse ears were topically treated with TPA to induce an “irritant contact dermatitis-like inflammation”. Mice were treated for 4 days with TPA, then for 5 extra days (until D9) with either vehicle, TPA alone, TPA and Dex, TPA and CpdX or TPA and CpdX-D3. At D10, RNA transcripts were extracted from mouse ear skin samples and the transcripts of CCL4, COX2, MMP13, IL-1β, IL-6, TNF-α, TSLP, IL-22 and IL-23 were analyzed by q-RT-PCR. Ear skin was harvested, and histological (with H&E staining) and immunohistochemical (with anti-TSLP antibodies) analyses were carried out.

Data set [2] relates to MC 903-induced atopic dermatitis (AD)-like inflammation. Nature of the data set: Calcipotriol (MC 903)-induced atopic dermatitis-like inflammation of mouse ears. The format is in vivo, Balb/C mouse. The following applies: for MC 903-induced ear skin inflammation, histological analysis: H&E, vs control; for expression of the TSLP lymphokine in MC 903-treated mouse epidermis (immunohistochemistry): data not shown; for MC 903-induced transcription of pro-inflammatory genes (MMP13, COX2, IL-1β, IL-6, IL-10, IL-13 and TSLP): ear extracts, q-RT-PCR, D23; for MC 903-induced skin inflammation: topical 1 nmole/cm^2, 8 days co-treatment with MC 903. As to the method:
To investigate the CpdX anti-inflammatory activity in vivo, Balb/C mouse ears were topically treated with calcipotriol (MC 903, a vitamin D3 analogue), in order to induce an atopic dermatitis (AD)-like inflammation (Li et al., 2006. Proc Natl Acad Sci USA. 103(31):11736-41).
Mice were treated for 14 days with MC 903, and then for 8 extra days (until D22) with either MC 903 alone (control), MC 903 and Dex, MC 903 and CpdX, MC 903 and CpdX(eA), MC 903 and CpdX(eB), MC 903 and CpdX-D3, MC 903 and CpdX-D3(eA) and MC 903 and CpdX-D3(eB).
At D23, RNA transcripts were extracted from mouse ear skin samples and the transcripts of 7 cytokines (MMP13, COX2, IL-1β, IL-6, IL-10, IL-13 and TSLP) were analyzed by q-RT-PCR. Ear skin was harvested and histological (with H&E staining) and immunohistochemical (with anti-TSLP antibodies) analyses were carried out.

In data set [3] the test system is Aldara-induced psoriasis-like skin inflammation. The data set can be described thus: Aldara-induced psoriasis-like skin inflammation of mouse ears. It counts as in vivo, Balb/C mouse. The following applies: for Aldara-induced psoriasis-like skin inflammation, histological analyses: H&E staining; for induced expression of the Th17 cytokines IL-17a, IL-17c, IL-17f and IL-22: ear extracts, q-RT-PCR, D10; for Aldara-induced psoriasis-like skin inflammation: topical 1 nmole/cm^2, last 5 days of 9 days Aldara. As to the method:
Balb/C mouse ears were topically treated with Aldara® to induce a psoriasis-like skin inflammation ([…] et al., 2015. Br J Dermatol. 172(2):345-53). Mice were treated for 9 days with Aldara®, including a co-topical treatment for the last 5 days with either ethanol (Vehicle), Dex, CpdX or CpdX-D3. At D10, RNA transcripts were extracted from mouse ears and IL-17a, IL-17c, IL-17f and IL-22 transcripts were analyzed by q-RT-PCR. Ear skin samples were also harvested for histological analyses (with H&E staining).

The test system of data set [4] is collagen-induced Th17 rheumatoid arthritis-like inflammation. The data set can be described thus: Collagen-induced arthritis (CIA). Particulars: for hind paw thickness at the ankle level: i.p. 1 mg/kg daily for 10 days (T0 to T10); for RNA transcripts of pro-inflammatory genes in hind paws (IL-1β, IL-6, IL-17a, IL-17f, TNFα): i.p. 1 mg/kg daily, T10, q-RT-PCR. It counts as in vivo, mice (DBA-1 strain). On the procedure: Mice were treated with collagen to induce a Th17 rheumatoid arthritis-like inflammation as described by Inglis et al. (2007. Arthritis Res Ther. 9(5):R113) and Geboes et al. (2009. Arthritis Rheum. 60(2):390-5).
Male mice (DBA-1 strain) were subcutaneously-injected with 100 μg collagen per mouse on D0. The hind paw thickness at the ankle level was regularly measured with a caliper. When the ankle thickness had reached around 4 mm (T0, i.e., 30 to 50 days after the collagen injection on D0), mice were daily intraperitoneally-injected for 10 days (T0 to T10) with either vehicle (NaCl 0.9%), Dex, CpdX, CpdX(eA), CpdX(eB), CpdX-D3, CpdX-D3(eA) or CpdX-D3(eB) (1 mg/kg body weight diluted in NaCl 0.9%), and the hind paw thickness at the ankle level was daily measured with a caliper. Pictures of the hind paws were taken at days T0 and T10 (before and after the treatment with either Vehicle, Dex, CpdX, CpdX(eA), CpdX(eB), CpdX-D3, CpdX-D3(eA) or CpdX-D3(eB)), in order to assess the course of swelling.
RNA transcripts were extracted from whole hind paws of collagen-untreated and collagen-treated mice at T0 and T10. IL-1β, IL-6, IL-17a, IL-17f and TNFα transcripts were analyzed by q-RT-PCR.

Data set [5] can be described thus: Body weight and body composition after three-month treatment (pDEXA). It counts as in vivo, B6 male mice. The following applies: s.c. 1 mg/kg daily, 3 months, pDEXA. As to the method: B6 male mice (8-week-old) were daily subjected for three months to a subcutaneous injection of either vehicle (NaCl 0.9%), Dex, CpdX or CpdX-D3 (1 mg/kg body weight, diluted in vehicle. A pDEXA machine was used to determine the lean mass and fat mass. The statistical significance was calculated through Krustal-Walis test followed by a Dunn's multiple comparison test, *p<0.05; **p<0.01; ***p<0.001.

The test system of another data set is adrenal glands. The data set can be described thus: Corticosterone synthesis and adrenal gland after three-month treatment. It counts as in vivo, B6 male mice. The following applies: three months; for cortex layers, most notably the fasciculata zone, of the adrenal glands (histology) / transcripts of Cyp11a, Cyp11b1 and HSD3β genes in adrenal glands (corticosterone synthesis pathway): s.c. 1 mg/kg daily; for transcripts of Cyp11a, Cyp11b1 and HSD3β genes in adrenal glands (corticosterone synthesis pathway): q-RT-PCR; for plasmatic corticosterone level at 10 a.m.: vs Vehicle. As to the method:
B6 male mice (8-week-old) were daily subjected for three months to either a subcutaneous injection of vehicle (NaCl 0.9%), Dex, CpdX, CpdX(eA), CpdX(eB), CpdX-D3, CpdX-D3(eA) or CpdX-D3(eB) (1 mg/kg body weight, diluted in vehicle).
Following this long-term treatment, blood was collected at 10 a.m. and 6 p.m. by retro-orbital puncture in lithium-heparin coated vials, and the plasmatic level of corticosterone was determined. Adrenal glands were harvested and weighted. RNA transcripts were extracted and transcripts of the Cyp11a, Cyp11b1, Cyp11b2 and HSD3β genes were analyzed by q-RT-PCR. Histological analyses of the adrenal glands were also carried out.

Another data set has as its system liver. The data set can be described thus: Fatty liver after three-month treatment (red oil staining, q-RT-PCR, plasma cholesterol and bile acids). Particulars: s.c. 1 mg/kg daily, three months. It counts as in vivo, B6 male mice. On the procedure: B6 male mice (8-week-old) were daily subjected for three months to a subcutaneous injection of either vehicle (NaCl 0.9%), Dex, CpdX, CpdX(eA), CpdX(eB), CpdX-D3, CpdX-D3(eA) or CpdX-D3(eB) (1 mg/kg body weight, diluted in vehicle). Following this treatment, blood was collected at 10 a.m. by retro-orbital puncture in lithium-heparin coated vials. The plasmatic levels of total cholesterol and bile acids were determined.
Liver samples were harvested. […] RNA transcripts were extracted from liver samples and the transcripts of fatty acid synthase (FASN) and Stearoyl-CoA desaturase 1 (SCD1) genes were analyzed by q-RT-PCR.

Take `COc1ccc(F)cc1C(C)(C)CC(O)(CNc1ccc2c(c1)COC2=O)C(F)(F)F` (racemic) [CpdX, 5-[4-(5-fluoro-2-methoxyphenyl)-2-hydroxy-4-methyl-2-(trifluoromethyl)pentylamino]-isobenzofuran-1(3H)-one]: in data set [1], the “TPA-induced ear skin inflammation, histological analysis” value was “significantly decreased”; the “expression of TSLP in TPA-treated mouse epidermis (immunochemistry)” value is given as “similarly strongly decreased”; the “TPA-induced transcription of pro-inflammatory genes (CCL4, COX2, MMP13, IL-1β, IL-6, TNF-α, TSLP, IL-22, IL-23)” value is recorded as “repressed, as efficiently as Dex”; the TPA-induced skin inflammation result is given as “significantly decreased”. Further, in data set [2], the “MC 903-induced ear skin inflammation, histological analysis” value is “decreased”; the “expression of the TSLP lymphokine in MC 903-treated mouse epidermis (immunohistochemistry)” value is “similarly strongly decreased”; the “MC 903-induced transcription of pro-inflammatory genes (MMP13, COX2, IL-1β, IL-6, IL-10, IL-13 and TSLP)” value is recorded as “repressed, as efficiently as Dex”; the “MC 903-induced skin inflammation” value is “significantly decreased”. Further, in data set [3], the “Aldara-induced psoriasis-like skin inflammation, histological analyses” value is recorded as “could reduce”; the “induced expression of the Th17 cytokines IL-17a, IL-17c, IL-17f and IL-22” value was “similarly reduced”; the “Aldara-induced psoriasis-like skin inflammation” value was “significantly decreased”. Further, in data set [4], the “hind paw thickness at the ankle level” value was “rapid decrease” and the “RNA transcripts of pro-inflammatory genes in hind paws (IL-1β, IL-6, IL-17a, IL-17f, TNFα)” value (“RNA transcripts” below) was “similarly repressed”. In data set [5], the “fat mass / fat percentage, change from baseline” value was “commensurate increase” and the “lean mass / lean percentage, change from baseline” value is listed as “commensurate increase”. Also, in the data set with adrenal glands, the “cortex layers, most notably the fasciculata zone, of the adrenal glands (histology)” value (“cortex layers … (histology)” for short) is on record as “markedly increased”; the “transcripts of Cyp11a, Cyp11b1 and HSD3β genes in adrenal glands (corticosterone synthesis pathway)” value (shortened to “transcripts of Cyp11a”) is recorded as “increased”; the “plasmatic corticosterone level at 10 a.m.” value was “much higher”. Moreover, the “lipid deposition in the liver (5% red oil staining)” value in the data set with liver is on record as “not observed”.

With `[2H]C([2H])([2H])Oc1ccc(F)cc1C(C)(C)CC(O)(CNc1ccc2c(c1)COC2=O)C(F)(F)F` (racemic) [CpdX-D3, 5-{4-[2-(methoxy-D3)-5-fluorophenyl]-2-hydroxy-4-methyl-2-(trifluoromethyl)pentylamino}isobenzofuran-1(3H)-one], in data set [1], the “TPA-induced ear skin inflammation, histological analysis” value was “significantly decreased”; the “expression of TSLP in TPA-treated mouse epidermis (immunochemistry)” value is reported as “similarly strongly decreased”; the “TPA-induced transcription of pro-inflammatory genes (CCL4, COX2, MMP13, IL-1β, IL-6, TNF-α, TSLP, IL-22, IL-23)” value is recorded as “repressed, as efficiently as Dex”; the TPA-induced skin inflammation entry is “significantly decreased”. Also, in data set [2], the “MC 903-induced ear skin inflammation, histological analysis” value is “decreased”; the “expression of the TSLP lymphokine in MC 903-treated mouse epidermis (immunohistochemistry)” value is “similarly strongly decreased”; the “MC 903-induced transcription of pro-inflammatory genes (MMP13, COX2, IL-1β, IL-6, IL-10, IL-13 and TSLP)” value is given as “repressed, as efficiently as Dex”; the “MC 903-induced skin inflammation” value is “significantly decreased”. In data set [3], the “Aldara-induced psoriasis-like skin inflammation, histological analyses” value is recorded as “could reduce”; the “induced expression of the Th17 cytokines IL-17a, IL-17c, IL-17f and IL-22” value is recorded as “similarly reduced”; the “Aldara-induced psoriasis-like skin inflammation” value is listed as “significantly decreased”. In data set [4], the “hind paw thickness at the ankle level” value is “rapid decrease” and the “RNA transcripts” value is recorded as “similarly repressed”. Also, in data set [5], the “fat mass / fat percentage, change from baseline” value is “commensurate increase” and the “lean mass / lean percentage, change from baseline” value was “commensurate increase”. Also, in the data set on adrenal glands, the “cortex layers … (histology)” value was “markedly increased”; the “transcripts of Cyp11a” value is reported as “increased”; the “plasmatic corticosterone level at 10 a.m.” value is “much higher”. The “lipid deposition in the liver (5% red oil staining)” value with liver is “not observed”.

As for `[2H]C([2H])([2H])Oc1ccc(F)cc1C(C)(C)CC(O)(CNc1ccc2c(c1)COC2=O)C(F)(F)F` (single isomer, unassigned; enantiomer a) [CpdX-D3(eA), 5-{4-[2-(methoxy-D3)-5-fluorophenyl]-2-hydroxy-4-methyl-2-(trifluoromethyl)pentylamino}isobenzofuran-1(3H)-one enantiomer A], in data set [4] (1 mg/kg), the “RNA transcripts” value was “similarly repressed”. In the data set on adrenal glands, the “cortex layers … (histology)” value is “markedly increased”; the “transcripts of Cyp11a” value is reported as “increased”; the “plasmatic corticosterone level at 10 a.m.” value is recorded as “much higher”.

Consider `COc1ccc(F)cc1C(C)(C)CC(O)(CNc1ccc2c(c1)COC2=O)C(F)(F)F` (single isomer, unassigned; enantiomer a) [CpdX(eA), 5-[4-(5-fluoro-2-methoxyphenyl)-2-hydroxy-4-methyl-2-(trifluoromethyl)-pentylamino]isobenzofuran-1(3H)-one enantiomer A], for which the “RNA transcripts” value in data set [4] (1 mg/kg) is listed as “similarly repressed”. Also, in the data set on adrenal glands, the “cortex layers … (histology)” value was “markedly increased”; the “transcripts of Cyp11a” value is “increased”; the “plasmatic corticosterone level at 10 a.m.” value is listed as “much higher”.

The values above are taken from patent US11179363B2, “Non-steroidal selective glucocorticoid receptor agonistic modulators (SEGRAMs) and uses thereof” (ASSOCIATION POUR LA RECHERCHE À L'IGBMC (ARI), priority 2017, dated 2021).
